# From patent publication US11148991B2, “5-bromo-2-(alpha-hydroxypentyl)benzoic acid sodium salts in different crystal forms, and preparation method thereof” (priority 2013, dated 2021)
# Read-outs that look alike come from different tables or passages of the source.
# What was measured:
# rat MCAO model = assay: Brain infarction volume and brain edema volume in rats with local brain ischemia (MCAO model); assay type: in vivo, Wistar rats; conditions: sodium salt
# From the text: Wistar rats (50% of rats is female and another 50% of rats is male); 5-bromo-2-(α-hydroxypentyl)benzoic acid sodium salt (BZP, in the form of amorphous form, crystal form A and crystal form B, prepared according to the present invention), prepared in double distilled water; […] is in the form of white powder, manufactured by Beijing Chemical Works.
# Administration method: 5-bromo-2-(α-hydroxypentyl)benzoic acid sodium salt (BZP) was intravenously injected at one hour before MCAO, with the dosage of 12 mg/kg; 5-bromo-2-(α-hydroxypentyl)benzoic acid sodium salt (BZP) was used to intragastric administration at one hour before MCAO, with the dosage of 20 mg/kg. 2-(α-hydroxypentyl)benzoic acid potassium salt (NBP-K) was used as positive control, and its dosage (calculated in moles) is the same as that of 5-bromo-2-(α-hydroxypentyl)benzoic acid sodium salt, that is, the dosage of intravenous injection is 9.6 mg/kg, and the dosage of intragastric administration is 15.9 mg/kg.
# Preparation of MCAO model: Establish a focal brain ischemia-reperfusion injury model by cerebral artery obstruction in rats with suture-occluded method. Rats were intraperitoneally injected with 10% chloral hydrate to anesthetize. Rats were fixed on back and the skin of neck center was incised. The left common carotid artery, external carotid artery, and internal carotid artery were subjected to blunt dissection. The pterygopalatine artery was ligated, only remaining cranial trunk of internal carotid artery; a prepared nylon rope (burning diameter 0.3 mm) was inserted via external carotid artery incision into the bifurcation of the […], and was pushed along the cranial direction of the internal carotid artery. […] This indicates one side of the middle cerebral artery occlusion model was completed. Sutured the incision, remained the end of nylon line out of the skin. For reperfusion, the nylon line was gently pulled out. If feel force of resistance, this indicates the end of nylon line has returned to the trunk of external carotid artery, thereby accomplishing reperfusion.
# Determination of infarction volume: After being subjected to ischemia for 2 hours and reperfusion for 24 hours, the heads of rats were cut off. Forebrain was removed and cut into six pieces, each piece being 2 mm. The pieces were stained with TC, and incubated at 37° C. for 30 minutes. Normal issues were stained to be red, but the infarcted issues were stained to be white. Took photos with digital camera, and calculated the percentage of the infarcted area relative to the spherical area of brain by Photoshop.
# [1] = system: liver and kidney functions in rats; assay: Sub-acute toxic effect on liver and kidney functions in rats; assay type: in vivo; set-up: AST: unit not given here; conditions: for Albumin (ALB) / Total Proteins (TP): in g/L (unit assumed); for Creatinine (CRE): in µmol/L (unit assumed)
# [2] = system: blood coagulation functions in rats; assay: Sub-acute toxic effect on blood coagulation functions in rats; assay type: in vivo
# [3] = Effect on body weight of rats; assay type: in vivo; conditions: for BW: in g (unit assumed)
# [4] = Solubility in water and methanol; assay type: physicochemical
# [5] = Stability in water and methanol solution; assay type: physicochemical; conditions: sodium salt
# [6] = Acute toxicity (LD50), rat; conditions: in vivo
# [7] = Acute toxicity (LD50), mouse; conditions: in vivo
# [8] = intragastric administration one hour before MCAO, BZP 20 mg/kg, NBP-K 15.9 mg/kg
# [9] = intravenous injection one hour before MCAO, 12 mg/kg, 12 mg/kg
# [10] = rats F, iv (12 mg/kg), in U/L (unit assumed)
# [11] = Day 6, rats F, ig group 20 mg/kg
# [12] = Day 6, rats F, iv group 12 mg/kg
# [13] = Day 6, rats M, ig group 20 mg/kg
# [14] = Day 6, rats M, iv group 12 mg/kg
# [15] = Day 11, rats F, ig group 20 mg/kg
# [16] = Day 11, rats F, iv group 12 mg/kg
# [17] = Day 11, rats M, ig group 20 mg/kg
# [18] = Day 11, rats M, iv group 12 mg/kg
# [19] = Day 16, rats F, ig group 20 mg/kg
# [20] = Day 16, rats F, iv group 12 mg/kg
# [21] = Day 16, rats M, ig group 20 mg/kg
# [22] = Day 16, rats M, iv group 12 mg/kg
# [23] = Day 21, rats F, ig group 20 mg/kg
# [24] = Day 21, rats F, iv group 12 mg/kg
# [25] = Day 21, rats M, ig group 20 mg/kg
# [26] = Day 21, rats M, iv group 12 mg/kg
# [27] = Day 24, rats F, ig group 20 mg/kg
# [28] = Day 24, rats F, iv group 12 mg/kg
# [29] = Day 24, rats M, ig group 20 mg/kg
# [30] = Day 24, rats M, iv group 12 mg/kg
compound,measurement,setting,value
"CCCCC(O)c1ccc(Br)cc1C(=O)[O-].[Na+] (stereo not drawn) [BZP (amorphous form), 5-bromo-2-(α-hydroxypentyl)benzoic acid sodium salt]",Edema (%),rat MCAO model; [8],2.24 ± 1.66^aa** %
same,Infarction volume (%),rat MCAO model; [8],5.59 ± 2.35 aa %
same,Inhibition of edema (%),rat MCAO model; [8],88.36%
same,Inhibition of infarction volume (%),rat MCAO model; [8],89.05%
same,Edema (%),rat MCAO model; [9],2.56 ± 1.63 aa %
same,Inhibition of edema (%),rat MCAO model; [9],88.58%
same,Infarction volume (%),"rat MCAO model; intravenous injection one hour before MCAO, BZP 12 mg/kg, NBP-K 9.6 mg/kg, ischemia 2 hours, reperfusion 24 hours",3.46 ± 2.94 aa %
same,Inhibition of infarction volume (%),"rat MCAO model; intravenous injection one hour before MCAO, BZP 12 mg/kg, NBP-K 9.6 mg/kg",93.52%
same,AST,"[1]; rats F, ig (20 mg/kg)",168.00 ± 17.19
same,Blood urea nitrogen (BUN),"[1]; rats F, ig (20 mg/kg)",3.80 ± 0.59
same,Total Bilirubin (TBIL),"[1]; rats F, ig (20 mg/kg)",2.10 ± 0.40
same,Creatinine kinase (CK),"[1]; rats F, ig (20 mg/kg), in U/L (unit assumed)",776.00 ± 437.68
same,Albumin (ALB),"[1]; rats F, ig (20 mg/kg)",32.43 ± 1.14
same,Total Proteins (TP),"[1]; rats F, ig (20 mg/kg)",46.63 ± 1.07
same,Creatinine (CRE),"[1]; rats F, ig (20 mg/kg)",57.50 ± 3.11
same,AST,"[1]; rats F, iv (12 mg/kg)",202.40 ± 68.12
same,Blood urea nitrogen (BUN),"[1]; rats F, iv (12 mg/kg)",4.00 ± 0.43
same,Total Bilirubin (TBIL),"[1]; rats F, iv (12 mg/kg)",2.72 ± 0.67
same,ALT,[1]; [10],38.00 ± 9.82
same,Creatinine kinase (CK),[1]; [10],636.80 ± 536.05
same,Albumin (ALB),"[1]; rats F, iv (12 mg/kg)",33.96 ± 1.71
same,Total Proteins (TP),"[1]; rats F, iv (12 mg/kg)",49.00 ± 0.79
same,Creatinine (CRE),"[1]; rats F, iv (12 mg/kg)",55.40 ± 2.30
same,AST,"[1]; rats M, ig (20 mg/kg)",4.92 ± 0.75
same,Blood urea nitrogen (BUN),"[1]; rats M, ig (20 mg/kg)",2.76 ± 1.09
same,Total Bilirubin (TBIL),"[1]; rats M, ig (20 mg/kg)",2.24 ± 1.50
same,Creatinine kinase (CK),"[1]; rats M, ig (20 mg/kg), in U/L (unit assumed)",938.60 ± 553.43
same,Albumin (ALB),"[1]; rats M, ig (20 mg/kg)",28.98 ± 7.34
same,Total Proteins (TP),"[1]; rats M, ig (20 mg/kg)",40.26 ± 15.78
same,Creatinine (CRE),"[1]; rats M, ig (20 mg/kg)",38.80 ± 25.62
same,AST,"[1]; rats M, iv (12 mg/kg)",5.34 ± 1.33
same,Blood urea nitrogen (BUN),"[1]; rats M, iv (12 mg/kg)",3.46 ± 0.72
same,Total Bilirubin (TBIL),"[1]; rats M, iv (12 mg/kg)",3.10 ± 1.23
same,Creatinine kinase (CK),"[1]; rats M, iv (12 mg/kg), in U/L (unit assumed)",762.00 ± 351.72
same,Albumin (ALB),"[1]; rats M, iv (12 mg/kg)",36.90 ± 6.72
same,Total Proteins (TP),"[1]; rats M, iv (12 mg/kg)",53.40 ± 8.69
same,Creatinine (CRE),"[1]; rats M, iv (12 mg/kg)",66.60 ± 15.09
same,APTT,"[2]; rats F, ig (20 mg/kg)",22.8 ± 5.9 s
same,FIB,"[2]; rats F, ig (20 mg/kg)",7.22 ± 0.97 g/L
same,PT,"[2]; rats F, ig (20 mg/kg)",17.5 ± 2.2 s
same,TT,"[2]; rats F, ig (20 mg/kg)",27.3 ± 2.4 s
same,APTT,"[2]; rats F, iv (12 mg/kg)",22.3 ± 8.5 s
same,FIB,"[2]; rats F, iv (12 mg/kg)",6.63 ± 0.95 g/L
same,PT,"[2]; rats F, iv (12 mg/kg)",18.8 ± 3.3 s
same,TT,"[2]; rats F, iv (12 mg/kg)",27.5 ± 2.8 s
same,APTT,"[2]; rats M, ig (20 mg/kg)",26.5 ± 3.2 s
same,FIB,"[2]; rats M, ig (20 mg/kg)",7.03 ± 0.29 g/L
same,PT,"[2]; rats M, ig (20 mg/kg)",16.4 ± 3.4 s
same,TT,"[2]; rats M, ig (20 mg/kg)",26.9 ± 5.9 s
same,APTT,"[2]; rats M, iv (12 mg/kg)",23.7 ± 2.1 s
same,FIB,"[2]; rats M, iv (12 mg/kg)",6.28 ± 0.55 g/L
same,PT,"[2]; rats M, iv (12 mg/kg)",17.5 ± 2.0 s
same,TT,"[2]; rats M, iv (12 mg/kg)",27.1 ± 3.8 s
same,BW,"[3]; Day 1, rats F, ig group 20 mg/kg",179 ± 12
same,BW,"[3]; Day 1, rats F, iv group 12 mg/kg",182 ± 13
same,BW,"[3]; Day 1, rats M, ig group 20 mg/kg",183 ± 8
same,BW,"[3]; Day 1, rats M, iv group 12 mg/kg",179 ± 13
same,ΔW (%),[3]; [11],7 ± 4%
same,BW,[3]; [11],192 ± 16
same,ΔW (%),[3]; [12],7 ± 2%
same,BW,[3]; [12],195 ± 12
same,ΔW (%),[3]; [13],15 ± 3%
same,BW,[3]; [13],210 ± 8
same,ΔW (%),[3]; [14],14 ± 6%
same,BW,[3]; [14],204 ± 7
same,ΔW (%),[3]; [15],7 ± 2 %
same,BW,[3]; [15],203 ± 14
same,ΔW (%),[3]; [16],3 ± 2 %
same,BW,[3]; [16],200 ± 15
same,ΔW (%),[3]; [17],17 ± 5%
same,BW,[3]; [17],245 ± 12
same,ΔW (%),[3]; [18],14 ± 2 %
same,BW,[3]; [18],238 ± 6
same,ΔW (%),[3]; [19],25 ± 4 %
same,BW,[3]; [19],224 ± 11
same,ΔW (%),[3]; [20],21 ± 7 %
same,BW,[3]; [20],212 ± 14
same,ΔW (%),[3]; [21],53 ± 14%
same,BW,[3]; [21],280 ± 18
same,ΔW (%),[3]; [22],31 ± 10%
same,BW,[3]; [22],270 ± 6
same,ΔW (%),[3]; [23],29 ± 6 %
same,BW,[3]; [23],230 ± 15
same,ΔW (%),[3]; [24],23 ± 6 %
same,BW,[3]; [24],223 ± 20
same,ΔW (%),[3]; [25],75 ± 14%
same,BW,[3]; [25],320 ± 18
same,ΔW (%),[3]; [26],66 ± 15 %
same,BW,[3]; [26],296 ± 8
same,ΔW (%),[3]; [27],31 ± 5 %
same,BW,[3]; [27],235 ± 12
same,ΔW (%),[3]; [28],21 ± 6 %
same,BW,[3]; [28],221 ± 19
same,ΔW (%),[3]; [29],84 ± 14%
same,BW,[3]; [29],337 ± 18
same,ΔW (%),[3]; [30],71 ± 16 %
same,BW,[3]; [30],304 ± 10
same,solubility,"[4]; methanol, organic solvent or mixture, methanol, read-out: Solubility in methanol",1890 mg/mL
same,solubility,"[4]; water, read-out: Solubility in water",2980 mg/mL
same,Stability,[5]; in methanol solution,>24 h
same,Stability,[5]; in water,>24 h
same,LD50,[6]; iv,246 mg/kg
same,LD50,[6]; po,726 mg/kg
same,LD50,[7]; iv,323 mg/kg
same,LD50,[7]; po,927 mg/kg
